According to US20240350492A1, “Methods for the Prevention and Treatment of Hearing Loss” (Ting Therapeutics LLC, priority 2020, published 2024):

What was measured:
adult FVB mice = experiment: Mouse model of acute noise-induced hearing loss (ABR, DPOAE, synaptic ribbon counts); conditions: no noise trauma; vs saline + noise and Afatinib + noise groups
Excerpt: Subcutaneous needle electrodes were inserted behind the pinna (inverting), vertex of the skull (non-inverting) and base of the tail (ground). Tone bursts of 5 ms duration with 0.5 ms cosine-squared envelopes delivered at a rate of 21 stimuli per second with alternating polarity were generated using BioSigRZ software and RZ6 multi I/O processor system (Tucker-Davis Technologies, FL). Stimuli were presented as open field via a speaker (MF1; TDT, FL) placed 10 cm in front of the pinna of the animal. […] Stimulus intensity was decreased in 5 dB increments, starting from 100 db SPL to 0 dB SPL. […] Before the start of every session, stimulus presenting speaker (MF1) was calibrated with a ¼″ microphone (PCB-378C10; PCB Piezotronics, NY) that was also placed 10 cm in front of the speaker.
Another group of mice were administered saline. […] ABR and DPOAE thresholds were recorded prior, 7 days, or 14 days post noise exposure.
These groups of mice were additionally tested for DPOAE threshold.

[1] = tested on: EGFR downstream signaling pathways (AKT and MAPK); experiment: Western blotting of EGFR downstream kinases in organ of Corti after transtympanic injection; type: in vivo, mouse; conditions: middle ear trans tympanic injection, 20 mg/ml; P28 FVB mice
Method: […]. […] Quarter 2 in the flow plot presents cells that are positive for EGFR. (B) P28 FVB mice were injected transtympanically with DMSO or 20 mg/ml of AG1478. Western blotting was performed on pooled organs of Corti to detect the phosphorylation of EGFR downstream kinases. (C) Zebrafish not injected or injected with 2 ng of scrambled or EGF ligand (EGFL) specific morpholinos (Gene Tools). […]. Quantification of the HCs was performed in SO3, O1 and O2 neuromasts. P<0.0001 versus the corresponding control (One-way ANOVA). […] (D) PCR from scrambled and EGFL morphants.
Now referring to FIGS. 2A-D, to determine whether functional EGFR is expressed in the adult cochlea, flow cytometry was used to identify epithelial cells that express EGFR protein in the adult cochlea (FIG. 2A). In P28 FVB mice, excluding dead cells and those with autofluorescence, we detected 1140±88 EGFR+; EpCAM+ (an epithelial cell marker) cells from one cochlea (Mean±SEM, n=4).

[2] = tested on: zebrafish neuromast hair cells; experiment: Zebrafish cisplatin ototoxicity, neuromast hair cell count; type: in vivo

Compound: CN(C)C/C=C/C(=O)Nc1cc2c(Nc3ccc(F)c(Cl)c3)ncnc2cc1O[C@H]1CCOC1 [Afatinib]
- DPOAE threshold, Afatinib without noise trauma (adult FVB mice): reduced DPOAE threshold at all f2 frequencies

Compound: COc1cc2ncnc(Nc3cccc(Cl)c3)c2cc1OC [AG1478]
- EGFR downstream signaling (AKT and MAPK) in the organ of Corti [1]: significantly suppressed

Compound: O=C(CCCCCCC(=O)Nc1ccccc1)NO [Vorinostat]
- protection against CIHL ([2]; doses of 0.002, 0.0183 and 0.165 μM, 1 hour pre-incubation, then 400 µM cisplatin for 4 hours): showed protection against CIHL
- Cisplatin damage in HCs at SO3 and O1-2 neuromasts ([2]; pretreated with various doses): significantly reduced Cisplatin damage
